Laboratory results published in patent US20260199365A1, “BIS-SULFONAMIDE SHIP1 ACTIVATORS” (The Research Foundation for the State University of New York, priority 2022, published 2026).
Entries after “also recorded” stand apart in the source; their conditions may differ.

Target: T1, recombinant human truncated SHIP1 (tSHIP1) (Homo sapiens, UniProt Q92835)
T1 construct: tSHIP1 (SHIP1, residues 397-864) was amplified from pET24TEV-tSHIP1; His tag; made in house; host or cells: E. coli BL21
T1 sequence (Q92835 397-864): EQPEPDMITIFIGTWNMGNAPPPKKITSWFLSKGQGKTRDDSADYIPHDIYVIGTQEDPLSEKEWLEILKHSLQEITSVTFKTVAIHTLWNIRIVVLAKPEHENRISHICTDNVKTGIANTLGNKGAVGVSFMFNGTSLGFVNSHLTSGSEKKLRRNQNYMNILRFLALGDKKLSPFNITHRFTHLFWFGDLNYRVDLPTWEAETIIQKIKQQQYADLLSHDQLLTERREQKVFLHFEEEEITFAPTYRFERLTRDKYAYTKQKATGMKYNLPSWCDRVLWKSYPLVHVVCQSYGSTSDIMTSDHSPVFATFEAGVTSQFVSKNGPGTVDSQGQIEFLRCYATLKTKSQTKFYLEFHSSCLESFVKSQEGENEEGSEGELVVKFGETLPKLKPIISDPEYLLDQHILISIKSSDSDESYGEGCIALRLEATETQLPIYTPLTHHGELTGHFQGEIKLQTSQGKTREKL
Assay: Malachite Green Phosphatase Release Assay (SHIP1 phosphatase activity)
Assay type: biochemical
Conditions: for Phosphatase activity in the Malachite Green Assay, analog concentration 250 μM: 250 μM analog; for Phosphatase activity in the Malachite Green Assay, analog concentration 250 μM / Phosphatase activity in the Malachite Green Assay, analog concentration 500 μM / Phosphatase activity in the Malachite Green Assay, analog concentration 125 μM: 100 μM PI(3,4,5)P3-diC8 substrate, normalized to vehicle control (DMSO) = 100%; for Phosphatase activity in the Malachite Green Assay, analog concentration 500 μM: 500 μM analog, >100% activation, <100% inhibition; for SHIP1 activator activity in the malachite green assay: discussion of Table 4 (125-500 μM); for Phosphatase activity in the Malachite Green Assay, analog concentration 125 μM: 125 μM analog
Procedure: ^aPhosphatase activity for SHIP1 and SHIP2 enzyme as determined in the malachite green assay. Results were normalized to the phosphatase activity level from vehicle control (DMSO) used as 100% activity. Values >100% are attributed to activation, while values <100% show inhibition of the enzyme compared to the control. The assay was performed at the indicated concentration of the small molecule with 100 μM PI(3,4,5)P3-diC8 as the substrate. ^bnd=not determined, compound 23 was insoluble.
Cloning and expression of tSHIP1 of truncated human SHIP1 protein (tSHIP1) from human whole blood mRNA have been previously described (see Brooks R, Iyer, S., Akada, H., Neelam, S., Russo, C. M., Chisholm, J. D., and Kerr W. G. Coordinate Expansion of Murine Hematopoietic and Mesenchymal Stem Cell Compartments by SHIPi Stem Cells 2015; 33:848). Briefly, tSHIP1 (SHIP1, residues 397-864) was amplified from pET24TEV-tSHIP1. Plasmids were extracted with Midi Prep (Qiagen) and sequences were verified by sequencing of the entire expression regions. The plasmids were then transformed into E. coli BL21 (New England Biolabs). Fresh colonies were amplified in 1 L LB at 37° C., shaking at 250 rpm until OD600 nm reached 0.6. Protein expression was induced with […] IPTG and incubation was continued at 16° C., shaking at 250 rpm for 16 h. Following centrifugation, bacteria pellets were stored overnight at −20° C. Protein was extracted form bacterial cell pellet using BugBuster HT (Millipore), according to manufacturer's recommendations. The His-tagged protein was purified by FPLC using HisTrapHP 5 ml column (Cytiva Life Sciences) at a 5 ml/min flow rate and 10 mM-1M imidazole gradient in Buffer A (20 mM Tris pH 8.0, 300 mM NaCl, 10 mM imidazole, 5 mM β-mercaptoethanol). Fractions containing active protein by Malachite Green Phosphatase Release Assay (Echelon, see below) were pooled, concentrated and buffer exchanged to reduce imidazole concentration by centrifugation using Pierce Protein Concentrators 30KMWCO PES, (ThermoFisher Scientific). Protein was aliquoted and stored at −80° C. in a mixture of Buffer A (without β-ME) and 50% glycerol.
Malachite Green Phosphatase Release Assays: Malachite Green Phosphatase Release Assays (Echelon Biosciences) were performed with recombinant human truncated SHIP1 (tSHIP1) (Brooks, 2015) and SHIP2 (Echelon Biosciences). Briefly, serial dilutions of the compounds dissolved in DMSO were added to the recombinant enzymes diluted in reaction buffer Rx (50 mM Hepes pH 7.4, 150 mM NaCl, 1 mM MgCl2, 0.25 mM EDTA) in triplicate reactions in 96-well plates. Reactions were incubated for 2 min at room temperature. […] of 1 mM Phosphatidylinositol 3,4,5-trisphosphate diC8 (PI(3,4,5)P3diC8) (Echelon Biosciences) was added to each reaction to a final concentration of 100 μM in a final volume of […]. Following 20 min incubation at 37° C., 100 μL of Malachite Green Solution (Echelon Biosciences) was added to each well and plates were incubated at room temperature in the dark for 15 min. Plates were then read at 620 nm on a plate reader (Synergy 2, BioTek).

SMILES	Malachite (SHIP1), 125 μM (bis-sulfonamide hybrids, 125 μM) [%]	Malachite (SHIP1), 250 μM (bis-sulfonamide hybrids, 250 μM) [%]	Malachite (SHIP1), 500 μM (bis-sulfonamide hybrids, 500 μM) [%]	Phosphatase activity in the Malachite Green Assay, analog concentration 250 μM [%]	Phosphatase activity in the Malachite Green Assay, analog concentration 500 μM [%]	SHIP1 activator activity in the malachite green assay	Phosphatase activity in the Malachite Green Assay, analog concentration 125 μM [%]	SHIP1 activator activity in the malachite green assay (listed as 22)
O=C(Nc1ccc(S(=O)(=O)N2CCCCC2)cc1)[C@@H]1CCCN1S(=O)(=O)c1ccc(C(F)(F)F)cc1 (stereo in doubt) [Compound K423]	99	109	136	–	–	–	–	–
Cc1sc(S(=O)(=O)N2CCOCC2)cc1NC(=O)CNS(=O)(=O)c1ccc(F)cc1 [Compound K367, 2-(4-Fluorobenzenesulfonamido)-N-[2-methyl-5-(morpholine-4-sulfonyl)thiophen-3-yl]acetamide]	–	–	–	93	94	loss of activity	–	–
Cc1sc(S(=O)(=O)N2CCSCC2)cc1NC(=O)CNC(=O)c1ccccc1 [Compound K371, N-[2-methyl-5-(thiomorpholine-4-sulfonyl)thiophen-3-yl]-2-(phenylformamido) acetamide]	–	–	–	94	83	loss of potency	97	–
Cc1sc(S(=O)(=O)N2CCSCC2)cc1NC(=O)CNC(=O)OCc1ccccc1 [Compound K373, Benzyl N-({[2-methyl-5-(thiomorpholine-4-sulfonyl)thiophen-3-yl]carbamoyl}methyl) carbamate]	–	–	–	102	105	loss of potency	93	–
Cc1sc(S(=O)(=O)N2CCSCC2)cc1NC(=O)CNS(=O)(=O)c1ccc(I)cc1 [Compound K374, 2-(4-Iodobenzenesulfonamido)-N-[2-methyl-5-(thiomorpholine-4-sulfonyl)thiophen-3-yl]acetamide]	–	–	–	83	119	loss of bioactivity	99	–
Cc1sc(S(=O)(=O)N2CCSCC2)cc1NC(=O)CNS(=O)(=O)c1ccc([N+](=O)[O-])cc1 [Compound K375, N-[2-methyl-5-(thiomorpholine-4-sulfonyl)thiophen-3-yl]-2-(4-nitrobenzenesulfonamido) acetamide]	–	–	–	115	150	increase in the activity	108	–
Cc1sc(S(=O)(=O)N2CCSCC2)cc1NC(=O)CNS(=O)(=O)c1ccccc1 [Compound K376, 2-Benzenesulfonamido-N-[2-methyl-5-(thiomorpholine-4-sulfonyl)thiophen-3-yl]acetamide]	–	–	–	106	107	loss of bioactivity	104	–
Cc1sc(S(=O)(=O)N2CC[S+]([O-])CC2)cc1NC(=O)CNS(=O)(=O)c1ccc(F)cc1 [Compound K377]	–	–	–	89	80	–	98	no activity as a SHIP activator; also recorded: some inhibition of SHIP1
Cc1sc(S(=O)(=O)N2CCSCC2)cc1NC(=O)CN [Compound K378, 2-Aminotrifluoroacetate-N-[2-methyl-5-(thiomorpholine-4-sulfonyl)thiophene-3-yl]acetamide]	–	–	–	104	107	reduced effect on SHIP activation	103	–
Cc1sc(S(=O)(=O)N2CCSCC2)cc1N [Compound K381]	–	–	–	107	113	reduced effect on SHIP activation	109	–
CCN(CC)S(=O)(=O)c1cc(NC(=O)CNS(=O)(=O)c2ccc(F)cc2)c(C)s1 [Compound K383, N-[5-(Diethylsulfamoyl)-2-methylthiophen-3-yl]-2-(4-fluorobenzenesulfonamido) acetamide]	–	–	–	93	109	–	101	–
Cc1sc(S(=O)(=O)N2CCSCC2)cc1NC(=O)[C@@H](C)NS(=O)(=O)c1ccc(F)cc1 [Compound K386, (2R)-2-(4-Fluorobenzenesulfonamido)-N-[2-methyl-5-(thiomorpholine-4-sulfonyl)thiophen-3-yl]propanamide]	–	–	–	108	116	–	–	–
Cc1sc(S(=O)(=O)N2CCCC2)cc1NC(=O)CNS(=O)(=O)c1ccc(F)cc1 [Compound K387, 2-(4-Fluorobenzenesulfonamido)-N-[2-methyl-5-(pyrrolidine-1-sulfonyl)thiophen-3-yl]acetamide]	–	–	–	97	90	loss of activity	100	–
Cc1sc(S(=O)(=O)N(C)C)cc1NC(=O)CNS(=O)(=O)c1ccc(F)cc1 [Compound K388, N-[5-(Dimethylsulfamoyl)-2-methylthiophen-3-yl]-2-(4-fluorobenzenesulfonamido) acetamide]	–	–	–	97	94	–	100	–
Cc1sc(S(=O)(=O)N2CCSCC2)cc1NC(=O)[C@H](C)NS(=O)(=O)c1ccc(F)cc1 [Compound K389, (2S)-2-(4-Fluorobenzenesulfonamido)-N-[2-methyl-5-(thiomorpholine-4-sulfonyl)thiophen-3-yl]propanamide]	–	–	–	118	132	–	89	–
